Results taken from patent publication US4153692A, “Acylated imidazolyl-O,N-acetals, their pharmaceutically acceptable salts and metal complexes” (Bayer Aktiengesellschaft, priority 1976, dated 1979).
Values after ≈ are worked out from the molar mass of the structure shown.

Assays:
[1] = tested on: Trichophyton mentagrophytes; test: Antimycotic in vitro activity (series dilution test, MIC); type: cell-based; conditions: Sabouraud's milieu d'epreuve, 28° C., 24 to 96 hours, 5 × 10^4 germs/ml, read-out: MIC values in γ/ml of nutrient medium with Trichophyton mentagrophytes
Procedure: (§1) Antimycotic in vitro activity Description of the experiment The in vitro tests were carried out in a series dilution test using germ inocula with an average of 5 × 10^4 germs/ml of substrate. The nutrient medium used was a) for dermatophytes and molds: Sabouraud's milieu d'epreuve and b) for yeasts: meat extract/glucose broth. The incubation temperature was 28° C. and the incubation time was 24 to 96 hours.

Aspergillus niger = test: as above; type: cell-based; conditions: Sabouraud's milieu d'epreuve, 28° C., 24 to 96 hours, 5 × 10^4 germs/ml, read-out: MIC values in γ/ml of nutrient medium with Aspergillus niger
Procedure: as §1

Microsporum felinum = test: as above; type: cell-based; conditions: Sabouraud's milieu d'epreuve, 28° C., 24 to 96 hours, 5 × 10^4 germs/ml, read-out: MIC values in γ/ml of nutrient medium with Microsporum felinum
Procedure: as §1

Penicillium commune = test: as above; type: cell-based; conditions: Sabouraud's milieu d'epreuve, 28° C., 24 to 96 hours, 5 × 10^4 germs/ml, read-out: MIC values in γ/ml of nutrient medium with Penicillium commune
Procedure: as §1

Candida albicans = test: as above; type: cell-based; conditions: meat extract/glucose broth, 28° C., 24 to 96 hours, 5 × 10^4 germs/ml, read-out: MIC values in γ/ml of nutrient medium with Candida albicans
Procedure: as §1

Candida cells = test: Antimycotic in vivo activity on candidosis in mice; parameters: species or system mice of the SPF-CF1 type; conditions: mice infected i.v. with Candida; 100 mg/kg orally one hour before and seven hours after infection; untreated survival about 5%
Procedure: antimycotic in vivo activity on candidosis in mice Description of the experiment Mice of the SPF-CF1 type were infected intravenously with 1-2 × 10^6 logarithmically-growing Candida cells, which were suspended in physiological sodium chloride solution. One hour before and seven hours after the infection the animals were treated orally with, in each case, 100 mg of the formulations per kg of body weight. Untreated animals died of the infection 3 to 6 days after infection. The survival rate on the 6th day after infection was about 5% in the case of the untreated control animals

Structure (SMILES)	MIC [1] [µg/mL]	MIC (Aspergillus niger) [µg/mL]	MIC (Microsporum felinum) [µg/mL]	MIC (Penicillium commune) [µg/mL]	MIC (Candida albicans) [µg/mL]	Action (survivors on the 6th day after infection) (Candida cells)
CC(C)(C)c1ccc(OC(C(O)C(C)(C)C)n2ccnc2)cc1 (stereo not shown)	32 (≈ 101 µM)			> 64	64 (≈ 202 µM)	
CC(=O)OC(C(Oc1ccc(-c2ccc(Cl)cc2)cc1)n1ccnc1)C(C)(C)C (stereo not shown) [drawing 18]						++++ (good action = ≥ 80% survivors on the 6th day after infectio)
CC(=O)OC(C(Oc1ccc(F)cc1)n1ccnc1)C(C)(C)C (stereo not shown)						+++ (action = ≥ 60% survivors on the 6th day after infection)
CC(=O)OC(C(Oc1ccc(C2CCCCC2)cc1)n1ccnc1)C(C)(C)C (stereo not shown)	8 (≈ 20.8 µM)			32 (≈ 83.2 µM)	64 (≈ 166 µM)	
CC(=O)OC(C(Oc1ccc(Br)cc1)n1ccnc1)C(C)(C)C (stereo not shown) [drawing 16]						++ (weak action = ≥ 40% survivors on the 6th day after infection)
CC(=O)OC(C(Oc1ccc(Cl)cc1)n1ccnc1)C(C)(C)C (stereo not shown) [drawing 15]						++++ (good action = ≥ 80% survivors on the 6th day after infectio)
CC(C)(C)C(O)C(Oc1cccc(Cl)c1)n1ccnc1 (stereo not shown) [drawing 13]						+ (trace action = < 40% survivors on 6th day after infection)
CC(=O)OC(C(Oc1ccc(I)cc1)n1ccnc1)C(C)(C)C (stereo not shown) [drawing 20]						+ (trace action = < 40% survivors on 6th day after infection)
CC(=O)OC(C(Oc1ccccc1)n1ccnc1)C(C)(C)C (stereo not shown)						++ (weak action = ≥ 40% survivors on the 6th day after infection)

The next lines start with results.

MIC [1] [µg/mL]	MIC (Aspergillus niger) [µg/mL]	MIC (Microsporum felinum) [µg/mL]	MIC (Penicillium commune) [µg/mL]	MIC (Candida albicans) [µg/mL]	Structure (SMILES)	Action (survivors on the 6th day after infection) (Candida cells)
4 (≈ 9.34 µM)	64 (≈ 149 µM)	32 (≈ 74.7 µM)	64 (≈ 149 µM)	32 (≈ 74.7 µM)	CC(=O)OC(C(Oc1ccc(I)cc1)n1ccnc1)C(C)(C)C (stereo not shown) [drawing 10]	
64 (≈ 217 µM)			> 64	32 (≈ 109 µM)	CC(C)(C)C(O)C(Oc1cccc(Cl)c1)n1ccnc1 (stereo not shown) [drawing 4]	
< 1	64 (≈ 155 µM)	32 (≈ 77.5 µM)	64 (≈ 155 µM)	32 (≈ 77.5 µM)	CC(=O)OC(C(Oc1ccc(-c2ccc(Cl)cc2)cc1)n1ccnc1)C(C)(C)C (stereo not shown) [drawing 11]	
< 1	< 1	8 (≈ 21.1 µM)	8 (≈ 21.1 µM)	64 (≈ 169 µM)	CC(=O)OC(C(Oc1ccc(-c2ccccc2)cc1)n1ccnc1)C(C)(C)C (stereo not shown)	
4 (≈ 11.9 µM)	64 (≈ 190 µM)	32 (≈ 95 µM)	32 (≈ 95 µM)	32 (≈ 95 µM)	CC(=O)OC(C(Oc1ccc(Cl)cc1)n1ccnc1)C(C)(C)C (stereo not shown) [drawing 7]	
4 (≈ 10.5 µM)	64 (≈ 168 µM)	32 (≈ 83.9 µM)	32 (≈ 83.9 µM)	64 (≈ 168 µM)	CC(=O)OC(C(Oc1ccc(Br)cc1)n1ccnc1)C(C)(C)C (stereo not shown) [drawing 9]	
32 (≈ 123 µM)	> 64	> 64	> 64	32 (≈ 123 µM)	CC(C)(C)C(O)C(Oc1ccccc1)n1ccnc1 (stereo not shown)	
